The results in this text go back to article PMC7667655, “Targeted Covalent Inhibition of Plasmodium FK506 Binding Protein 35” (ACS Medicinal Chemistry Letters, 2020).

In one data set the target is T1, FKBP12 (Homo sapiens, UniProt P62942).
T1 construct: 6His-SUMO (N, cleaved yes); made in house; host or cells: E. coli (identical protocol to FBD35, BL21 DE3)
The data set is described as follows: Fluorescence polarization competition, FKBP12. In kind it is binding. On the technique in general: In fluorescence polarisation assays a small probe gives low polarisation when free and higher when bound to something large.

Data set [1] can be described thus: Cell viability assay (CellTiter-Glo). The format is cell-based. Conditions: human; HEK293T, 72 hour treatment; read-out: IC50 cell viability. The method, then: In 96-well round-bottom plates, sorbitol -synchronized cultures of ring-stage NF54 P. falciparum parasites were established in triplicate and treated with varying concentrations of the inhibitors (25-0.0038 μM) serially diluted in complete medium. Parasite proliferation rates were analyzed after 72 h using the Renilla-Glo Luciferase Assay, and luminescence was measured using the GloMax® Discover Microplate Reader. EC 50 values were obtained from corrected dose-response curves using GraphPad Prism (version 5; GraphPad Software). Data represent the mean % luminescence relative to 5% DMSO-treated (vehicle, 100% growth) and 100 nM chloroquine-treated (no growth) controls.
In black, clear-bottom 96-well plates (No. 3904 Corning Life Sciences), HEK293T cells were plated at 2x10^5 cells/mL in DMEM high glucose, pyruvate media (ThermoFisher Scientific, cat. 11995073) supplemented with 10% FBS and 1% pen -strep (100 μL final volume). Cells were incubated overnight at 37°C, 5% CO2. Using a Tecan D300e digital dispenser, cells were dosed in triplicate […]
concentration, 100 mM stock in DMSO) and Carfilzomib (10 µM to 4.6 nM final concentration, 10 mM stock in DMSO) normalizing DMSO to 0.25%. Cells were then incubated at 37 °C, 5% CO2 for 72 hours. Following incubation, cells were treated with 70 µL CellTiter-Glo® Luminescent Cell Viability Assay Reagent (Promega, cat. G7570) and incubated in the dark at room temperature for 30 minutes. Plates were read using an EnVision Multimode Plate Reader (PerkinElmer). Cell viability data was normalized to DMSO controls and analyzed in GraphPad Prism 8 by fitting the data to “[Inhibitor] vs. normalized response – variable slope” model to obtain the curves.
Each compound was prepared in duplicate at 1 µM final concentration (0.2% DMSO) in human or mouse plasma (Aldrich). […]
After quenching, samples were centrifuged to pellet precipitated partic ulates and an aliquot of supernatant was diluted 1:1 with water. The resulting solution was analyzed by UPLC -MS/MS with compounds detected by MRM detection on a triple quadrupole mass spectrometer. […]
On the technique in general: Cellular ATP, detected with luciferase, serves as a proxy for viable cell number.

T1 sequence (P62942 whole entry): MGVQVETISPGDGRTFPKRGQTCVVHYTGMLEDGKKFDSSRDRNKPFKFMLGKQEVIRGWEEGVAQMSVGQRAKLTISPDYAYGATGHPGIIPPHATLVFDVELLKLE

The term IC50 denotes the concentration needed to halve the response being measured. In turn, `C=CC(=O)Nc1cccc([C@@H](CCc2ccc(OC)c(OC)c2)OC(=O)[C@@H]2CCCCN2C(=O)C(=O)C(C)(C)CC)c1` [1a] gave an IC50 at FKBP12 of 132 nM.

The compound `CCC(=O)Nc1cccc([C@@H](CCc2ccc(OC)c(OC)c2)OC(=O)[C@@H]2CCCCN2C(=O)C(=O)C(C)(C)CC)c1` [1b] showed a half-inhibitory concentration (IC50) on FKBP12 of 58 nM.

`C=CC(=O)Nc1ccccc1[C@@H](CCc1ccc(OC)c(OC)c1)OC(=O)[C@@H]1CCCCN1C(=O)C(=O)C(C)(C)CC` [1c] returned a concentration for half-maximal inhibition (IC50) at FKBP12 of 423 nM. For the same compound, in data set [1], the IC50 at 72 h amounted to 75000 nM.

On to `C=CC(=O)OCC(C)(C)C(=O)C(=O)N1CCCC[C@H]1C(=O)O[C@H](CCc1ccc(OC)c(OC)c1)c1ccccc1` [2c], for which, at FKBP12, the half-maximal inhibitory concentration (IC50) is 166 nM.
